Consider twelve compounds from patent publication US5919797A, “Halogenated naphthyl methoxy piperidines for mapping serotonin transporter sites” (Emory University, priority 1997, dated 1999).

The subject of test [1] is serotonin transporter sites. Conditions: carbon-11 labelled, vs previously tested PET serotonin transporter ligands; cited from earlier work.
Test [2] concerns the target T1, serotonin transporter (Rattus norvegicus, UniProt P31652).
T1 construct: from tissue; host or cells: rat cerebral cortex homogenate
The test is described as follows: inhibition of [3H]-citalopram binding to rat cortical homogenates (competitive radioligand binding assay). The text has this:
Compounds of the invention have activity as specific ligands of the serotonin transporter. In particular, the 1-halonaphthalenyl pharmacophore has high affinity for the serotonin transporter. […] Halogen substituents can be in naturally-occurring or radioisotopic form.
Many compounds have been described in the literature as selective inhibitors of the presynaptic reuptake of serotonin (5-hydroxytryptamine,5-HT). […] A good correlation exists between the capacities of a variety of drugs to inhibit [^3 -H]-citalopram binding and [^3 -H]-5HT uptake in rat cortex, thus allowing this binding test to be used in screening for new 5-HT uptake inhibitors. […]

For a further test, the system named is serotonergic neurons. The test is described as follows: biodistribution studies in rats of radiolabelled compound. Type of test: in vivo, rat. The note with it: 123-I labelled.
The next test concerns 5HT3 receptor. The test is described as follows: inhibition of [3H] GR65630 binding to serotonergic synaptosomal preparation. The text has this:
5HT3 receptor activity. It blocked the binding of [3H] GR65630 to […]

The test system of test [3] is presynaptic reuptake of serotonin. The note with it: humans; depression, obsessive-compulsive and eating disorders, alcoholism, drug addiction; cited from earlier work.
Test [4] concerns serotonin transporter. Conditions: radiolabeled with carbon-11 and fluorine-18; cited from earlier work.
Where [5] appears, read: Table 1, rat cortical tissue, read-out: [3H]-Citalopram Binding IC50.
Where [6] appears, read: Table 1, rat cortical tissue, read-out: [3H]-Citalopram Binding Ki.
The mark [7] stands for this setting: concentration needed to achieve 50% inhibition of citalopram binding (IC50), rat cortical homogenates.
Where [8] appears, read: serotonergic synaptosomal preparation.

“Also recorded” adds a separate entry of the source. Structures can show the parent of a compound that is named as a salt. Where two headings read alike, the source gives them in different places.

T1 sequence (P31652 whole entry): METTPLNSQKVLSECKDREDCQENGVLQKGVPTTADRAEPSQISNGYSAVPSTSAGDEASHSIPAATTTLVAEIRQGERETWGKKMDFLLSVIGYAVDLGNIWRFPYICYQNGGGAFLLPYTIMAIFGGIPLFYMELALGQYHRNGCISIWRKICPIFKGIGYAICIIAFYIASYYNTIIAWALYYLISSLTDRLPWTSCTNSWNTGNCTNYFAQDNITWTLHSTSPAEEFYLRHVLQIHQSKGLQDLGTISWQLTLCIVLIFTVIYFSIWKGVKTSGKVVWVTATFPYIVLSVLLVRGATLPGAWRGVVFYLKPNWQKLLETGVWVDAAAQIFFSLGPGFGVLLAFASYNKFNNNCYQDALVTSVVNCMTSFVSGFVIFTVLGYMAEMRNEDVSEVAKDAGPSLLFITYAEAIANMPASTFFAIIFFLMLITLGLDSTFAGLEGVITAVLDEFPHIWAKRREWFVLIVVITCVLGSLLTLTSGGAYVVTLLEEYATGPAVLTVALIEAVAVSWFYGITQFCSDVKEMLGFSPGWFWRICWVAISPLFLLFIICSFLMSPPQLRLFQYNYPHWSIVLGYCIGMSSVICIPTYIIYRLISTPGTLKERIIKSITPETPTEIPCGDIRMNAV

Take `[11CH3]Sc1ccc([C@H]2CN3CCC[C@H]3c3ccccc32)cc1` [Carbon-11 McN-5652Z]: in test [1], the “accumulation in brain regions rich in serotonergic neurons, in words” value is on record as “greatest accumulation in brain regions rich in serotonergic neurons”.
With `Brc1c(COC2CCNCC2)ccc2ccccc12.Cl` [Compound 1, 4-[(1-Bromo-2-naphthalenyl)methoxy]piperidine hydrochloride], the IC50 at serotonin transporter [2] (setting [5]) is 0.02 nM; on serotonin transporter [2] (setting [7]) it was 0.015 nM. Also, the Ki on serotonin transporter [2] (setting [6]) came out at 0.014 nM. Further, the “inhibition of [3H]-citalopram binding / affinity for the serotonin transporter, in words” value on serotonin transporter [2] (rat cortical tissue) is recorded as “most potent inhibitor”. Also, the “potency relative to fluoxetine, inhibition of [3H]-citalopram binding” value at serotonin transporter [2] (rat cortical tissue, vs fluoxetine (Prozac)) is recorded as 100 fold.
As for `Ic1c(COC2CCNCC2)ccc2ccccc12` [Compound 2, 4[(1-Iodo-2-naphthalenyl)methoxyl]piperidine hydrochloride], the Ki at serotonin transporter [2] is 4.13 nM. Besides, the IC50 on serotonin transporter [2] ([3H]-Citalopram Binding IC50, Table 1, rat cortical tissue) was 5.9 nM; on serotonin transporter [2] (setting [7]) it was 4.1 nM.
Take `Cl.Fc1c(COC2CCNCC2)ccc2ccccc12` [Compound 3, 4-[(1-Fluoro-2-naphthalenyl)methoxy]-piperidine hydrochloride]: the 50% inhibitory concentration (IC50) was 5.74 nM at serotonin transporter [2] (setting [5]) and 3.37 nM on serotonin transporter [2] (setting [7]). In addition, the Ki on serotonin transporter [2] (setting [6]) worked out at 3.37 nM. The “inhibition of [3H]-citalopram binding / affinity for the serotonin transporter, in words” value on serotonin transporter [2] (rat cortical tissue) was “inhibitory activity comparable to that of fluoxetine and fluvoxamine”.
For `Cl.Clc1c(COC2CCNCC2)ccc2ccccc12` [Compound 4, 4-[(1-Chloro-2-naphthalenyl)methoxy]-piperidine hydrochloride], the IC50 was 2.12 nM on serotonin transporter [2] (setting [5]) and 1.24 nM at serotonin transporter [2] (setting [7]). Besides, at serotonin transporter [2] (setting [6]), the Ki was found to be 1.24 nM. Moreover, the “inhibition of [3H]-citalopram binding / affinity for the serotonin transporter, in words” value at serotonin transporter [2] (rat cortical tissue) was “inhibitory activity comparable to that of fluoxetine and fluvoxamine”.
With `Brc1c(COC2CCNCC2)c(I)cc2ccccc12` [Compound 5, 4-[(1-Bromo-3-iodo-2-naphthalenyl)methoxy]piperidine hydrochloride], at serotonin transporter [2] (setting [5]), the IC50 is 54.6 nM. On serotonin transporter [2] (setting [6]), the inhibition constant (Ki) was found to be 36.9 nM.
For the compound `Brc1c(COC2CCNCC2)cc(I)c2ccccc12` [Compound 6, 4-[(1-bromo-4-iodo-2-naphthalenyl)methoxy]piperidine hydrochloride], the IC50 at serotonin transporter [2] (setting [5]) is 24.6 nM. Besides, at serotonin transporter [2] (setting [6]), the Ki is 16.7 nM.
The matching figures for `Brc1c(COC2CCNCC2)ccc2cc(I)ccc12` [Compound 7, 4-[(1-Bromo-6-iodo-2-naphthalenyl)methoxy]piperidine hydrochloride]: 60 nM and 58.4 nM.
On to `[123I]c1c(COC2CCNCC2)ccc2ccccc12` [Compound 58], for which the “selective accumulation of radioactivity in serotonergic neurons” value with serotonergic neurons is given as “did not lead to selective accumulation of the radioactivity in serotonergic neurons”.
Regarding `c1ccc2nc(COC3CCNCC3)ccc2c1` [Compound 70, 4-[(2-quinolenyl)methoxy]piperdine hydrochloride], the half-maximal inhibitory concentration (IC50) on serotonin transporter [2] (setting [5]) is more than 100 nM; at 5HT3 receptor (setting [8]), 7.4 nM. For the same compound, the Ki on serotonin transporter [2] (setting [6]) is more than 100 nM; on 5HT3 receptor (setting [8]), 3.24 nM. Further, the “inhibition of [3H]-citalopram binding / affinity for the serotonin transporter, in words” value at serotonin transporter [2] (rat cortical tissue) is on record as “devoid of affinity for the serotonin transporter”. In the test with 5HT3 receptor (hydrochloride), the “5-HT3 antagonism, in words” value is reported as “high selectivity as an antagonist of 5-HT3 function; also recorded: potent inhibitor”.
As to `COCCCC/C(=N\OCCN)c1ccc(C(F)(F)F)cc1` [fluvoxamine], in test [3], the “therapeutic value, in words” value is listed as “considerable therapeutic value”.
For `O=[N+]([O-])c1ccc2nc(N3CCNCC3)ccc2c1` [nitroquipazine], the “image quality / in vivo affinity and selectivity, in words” value with serotonin transporter [4] is “poor quality images”.

As a reminder, the IC50 is the midpoint of a concentration-inhibition curve. In general, Ki refers to a dissociation constant, usually derived from enzyme kinetics or from competition with a known ligand.
